# Patent US8183238B2, “Bicyclic and tricyclic compounds as KAT II inhibitors” (priority 2009, dated 2012)
# pIC50: −log10 of the molar value. Counter-ions that a name gives are not always drawn.
# Molecular target: human KAT II (hKAT II) enzyme (Homo sapiens, UniProt Q8N5Z0)
# Assay: KAT II Inhibition Spectra Assay
# Type: biochemical
# Conditions: Table 5; hKAT II, decrease in OD370, 37° C., 15-20 h; read-out: KATII IC50
# Method: Formation of kynurenic acid (KYNA) is indirectly assessed by a decrease in light absorbance at 370 nm (OD370) as the L-kynurenine (KYN) substrate is converted by the human KAT II (hKAT II) enzyme into KYNA. An inhibitor would therefore inhibit the decrease in OD370.
# The protocol was performed by placing the following reagents into a Costar 384 well black plate (30 μL total assay volume/well): • 10 μL of 3× concentrated compound; • 10 μL of 3× concentrated substrate mix (BGG (Sigma G-5009); 3 mM L-Kynurenine in 150 mM Tris Acetate (Sigma K3750); 3 mM α-ketoglutaric acid in 150 mM Tris Acetate (Sigma K2010); and 210 μM pyridoxal 5-phosphate (PLP) in 150 mM Tris Acetate (Sigma 9255)); and • 10 μL of 3× concentrated enzyme (15 nM enzyme in 150 mM Tris Acetate with 0.3% bovine serum).
# Plates were sealed and incubated at 37° C. for 15-20 h before reading OD370 on a SpectraMax Plus plate reader. IC50s were generated by comparing the efficacy of compounds across a concentration range to inhibit a reduction in the OD370 value relative to assay wells with DMSO added in place of concentrated compound.
# Chain of human KAT II (hKAT II) enzyme (Q8N5Z0 30-425): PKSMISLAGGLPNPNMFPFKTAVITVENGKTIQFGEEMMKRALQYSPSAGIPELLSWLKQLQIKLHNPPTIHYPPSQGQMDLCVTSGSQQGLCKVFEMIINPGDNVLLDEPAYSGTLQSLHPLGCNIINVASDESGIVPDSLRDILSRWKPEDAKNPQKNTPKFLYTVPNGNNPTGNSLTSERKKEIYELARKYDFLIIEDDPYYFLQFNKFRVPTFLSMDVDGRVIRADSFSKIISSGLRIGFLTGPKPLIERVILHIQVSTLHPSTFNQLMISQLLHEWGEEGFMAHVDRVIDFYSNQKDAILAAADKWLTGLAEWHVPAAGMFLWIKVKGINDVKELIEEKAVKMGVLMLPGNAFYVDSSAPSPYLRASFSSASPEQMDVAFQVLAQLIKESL
row,Structure (SMILES),pIC50
1,"NC1Cc2cccnc2N(O)C1=O (centres unmarked) [Example 1, 3-amino-1-hydroxy-3,4-dihydro-1,8-naphthyridin-2(1H)-one, trifluoroacetate salt]",7.28
2,"NC1Cc2cc(F)ccc2N(O)C1=O (centres unmarked) [Example 2, 3-amino-6-fluoro-1-hydroxy-3,4-dihydroquinolin-2(1H)-one, hydrochloride salt]",7.63
3,"NC1Cc2cccc(C(F)(F)F)c2N(O)C1=O (centres unmarked) [Example 3, 3-amino-1-hydroxy-8-(trifluoromethyl)-3,4-dihydroquinolin-2(1H)-one]",6.69
4,"N[C@@H]1Cc2ccc(Br)cc2N(O)C1=O [Example 5, (3R)-3-amino-7-bromo-1-hydroxy-3,4-dihydroquinolin-2(1H)-one]",6.88
5,"N[C@H]1Cc2ccc(Br)cc2N(O)C1=O [Example 6, (3S)-3-amino-7-bromo-1-hydroxy-3,4-dihydroquinolin-2(1H)-one]",7.60
6,"C[C@H]1c2ccccc2N(O)C(=O)[C@H]1N [Example 7, (3S,4S)-3-amino-1-hydroxy-4-methyl-3,4-dihydroquinolin-2(1H)-one, hydrochloride salt]",5.48
7,"Cc1cc(Cl)cc2c1N(O)C(=O)C(N)C2 (centres unmarked) [Example 8, 3-amino-6-chloro-1-hydroxy-8-methyl-3,4-dihydroquinolin-2(1H)-one]",6.22
8,"NC1Cc2ncccc2N(O)C1=O (centres unmarked) [Example 9, 3-amino-1-hydroxy-3,4-dihydro-1,5-naphthyridin-2(1H)-one, dihydrochloride salt]",5.65
9,"NC1Cc2cc(C(F)(F)F)ccc2N(O)C1=O (centres unmarked) [Example 10, 3-amino-1-hydroxy-6-(trifluoromethyl)-3,4-dihydroquinolin-2(1H)-one, hydrochloride salt]",7.13
10,"NC1Cc2c(ccc3ccccc23)N(O)C1=O (centres unmarked) [Example 11, 2-amino-4-hydroxy-1,2-dihydrobenzo[f]quinolin-3(4H)-one]",6.92
11,"COc1cccc2c1C[C@H](N)C(=O)N2O [Example 12, (3S)-3-amino-1-hydroxy-5-methoxy-3,4-dihydroquinolin-2(1H)-one, hydrochloride salt]",6.42
12,"COc1cccc(-c2ccc3c(c2)N(O)C(=O)C(N)C3)c1 (centres unmarked) [Example 13, 3-amino-1-hydroxy-7-(3-methoxyphenyl)-3,4-dihydroquinolin-2(1H)-one, hydrochloride salt]",7.24
13,N[C@@H]1Cc2ccccc2N(O)C1=O [Example 14],6.57
14,NC1Cc2ccc(Cl)cc2N(O)C1=O (centres unmarked) [Example 15],7.95
15,NC1Cc2cc(Cl)ccc2N(O)C1=O (centres unmarked) [Example 16],7.64
16,Cc1ccc2c(c1)N(O)C(=O)C(N)C2 (centres unmarked) [Example 17],7.02
17,Cc1ccc2c(c1)CC(N)C(=O)N2O (centres unmarked) [Example 18],6.86
18,Cc1cccc2c1N(O)C(=O)C(N)C2 (centres unmarked) [Example 19],5.52
19,N[C@H]1Cc2cccc(C(F)(F)F)c2N(O)C1=O [Example 20],6.90
20,NC1Cc2cc(C3CC3)ccc2N(O)C1=O (centres unmarked) [Example 21],7.34
21,N[C@H]1Cc2c(Cl)cccc2N(O)C1=O [Example 22],7.34
22,NC1Cc2cc(Cl)cc(C(F)(F)F)c2N(O)C1=O (centres unmarked) [Example 23],7.19
23,N[C@H]1Cc2cc(Br)cc(C(F)(F)F)c2N(O)C1=O [Example 24],7.30
24,CC(C)Oc1ccc2c(c1)N(O)C(=O)[C@@H](N)C2 [Example 25],7.32

row,Structure (SMILES),pIC50
1,CCc1ccc2c(c1)N(O)C(=O)C(N)C2 (centres unmarked) [Example 26],7.06
2,N[C@H]1Cc2c(F)cccc2N(O)C1=O [Example 27],7.28
3,N[C@H]1Cc2cc(-c3ccc(C(F)(F)F)cc3)cc(C(F)(F)F)c2N(O)C1=O [Example 28],5.88
4,COc1ccc2c(c1)N(O)C(=O)C(N)C2 (centres unmarked) [Example 29],7.98
5,NC1Cc2ccc(C3CC3)cc2N(O)C1=O (centres unmarked) [Example 30],7.63
6,N[C@H]1Cc2cc(Cl)cc(F)c2N(O)C1=O [Example 31],7.30
7,N[C@H]1Cc2cc(OC(F)(F)F)ccc2N(O)C1=O [Example 32],7.44
8,N#Cc1cccc2c1N(O)C(=O)C(N)C2 (centres unmarked) [Example 33],7.48
9,N[C@H]1Cc2ccc(OCc3ccccc3)cc2N(O)C1=O [Example 34],7.45
10,N[C@H]1Cc2cc(Cl)cc(C(F)(F)F)c2N(O)C1=O [Example 35],7.31
11,N[C@H]1Cc2cccc(F)c2N(O)C1=O [Example 36],7.10
12,N[C@H]1Cc2cccc(OC(F)(F)F)c2N(O)C1=O [Example 37],7.47
13,"NC1Cc2ccc(-c3cccc(OC(F)(F)F)c3)cc2N(O)C1=O (centres unmarked) [Example 38, 3-amino-1-hydroxy-7-[3-(trifluoromethoxy)phenyl]-3,4-dihydroquinolin-2(1H)-one, trifluoroacetate salt]",6.88
14,"Cc1ccc(-c2ccc3c(c2)N(O)C(=O)C(N)C3)cc1 (centres unmarked) [Example 39, 3-amino-1-hydroxy-7-(4-methylphenyl)-3,4-dihydroquinolin-2(1H)-one, trifluoroacetate salt]",6.87
15,"NC1Cc2ccc(-c3cccc(F)c3F)cc2N(O)C1=O (centres unmarked) [Example 40, 3-amino-7-(2,3-difluorophenyl)-1-hydroxy-3,4-dihydroquinolin-2(1H)-one, trifluoroacetate salt]",6.91
16,"NC1Cc2ccc(-c3ccccc3OC(F)(F)F)cc2N(O)C1=O (centres unmarked) [Example 41, 3-amino-1-hydroxy-7-[2-(trifluoromethoxy)phenyl]-3,4-dihydroquinolin-2(1H)-one, trifluoroacetate salt]",6.59
17,"NC1Cc2ccc(-c3ccccc3)cc2N(O)C1=O (centres unmarked) [Example 42, 3-amino-1-hydroxy-7-phenyl-3,4-dihydroquinolin-2(1H)-one, trifluoroacetate salt]",7.00
18,"NC1Cc2ccc(-c3cc(Cl)ccc3Cl)cc2N(O)C1=O (centres unmarked) [Example 43, 3-amino-7-(2,5-dichlorophenyl)-1-hydroxy-3,4-dihydroquinolin-2(1H)-one, trifluoroacetate salt]",6.88
19,"NC1Cc2ccc(-c3ccc(F)c(F)c3)cc2N(O)C1=O (centres unmarked) [Example 44, 3-amino-7-(3,4-difluorophenyl)-1-hydroxy-3,4-dihydroquinolin-2(1H)-one, trifluoroacetate salt]",6.93
20,"NC1Cc2ccc(-c3ccccc3Cl)cc2N(O)C1=O (centres unmarked) [Example 45, 3-amino-7-(2-chlorophenyl)-1-hydroxy-3,4-dihydroquinolin-2(1H)-one, trifluoroacetate salt]",6.63
21,"NC1Cc2ccc(-c3cccc(C(F)(F)F)c3)cc2N(O)C1=O (centres unmarked) [Example 46, 3-amino-1-hydroxy-7-[3-(trifluoromethyl)phenyl]-3,4-dihydroquinolin-2(1H)-one, trifluoroacetate salt]",6.89
22,"Cc1cccc(-c2ccc3c(c2)N(O)C(=O)C(N)C3)c1C (centres unmarked) [Example 47, 3-amino-7-(2,3-dimethylphenyl)-1-hydroxy-3,4-dihydroquinolin-2(1H)-one, trifluoroacetate salt]",6.93
23,"CN(C)c1ccc(-c2ccc3c(c2)N(O)C(=O)C(N)C3)cn1 (centres unmarked) [Example 48, 3-amino-7-[6-(dimethylamino)pyridin-3-yl]-1-hydroxy-3,4-dihydroquinolin-2(1H)-one, trifluoroacetate salt]",6.28
